In the kinase profiling compilation of Christmann-Franck et al. (2016):

Columns and labels:
Assay in all cases: KINOMEscan competition binding
Conditions in all cases: compound 10.0 µM
[1] = test system: KIT (human), P10721 [V559D/T670I]
[2] = test system: EGFR (human), P00533 [746-750 del]
[3] = test system: EGFR (human), P00533 [P753S; 747-752 del]
[4] = test system: EGFR (human), P00533 [L861Q]
[5] = target: TIE1 (human) (UniProt P35590)
[6] = test system: EGFR (human), P00533 [G719S]
[7] = target: PIK3CA (human) (UniProt P42336)
[8] = target: DDR1 (human) (UniProt Q08345)
[9] = target: EGFR (human) (UniProt P00533)
[10] = target: STK38 (human) (UniProt Q15208)
[11] = target: SNRK (human) (UniProt Q9NRH2)
[12] = target: MAP3K15 (human) (UniProt Q6ZN16)
[13] = target: TBK1 (human) (UniProt Q9UHD2)
[14] = target: MAP3K6 (human) (UniProt O95382)
[15] = target: MAP2K7 (human) (UniProt O14733)
[16] = target: PKN3 (M.tuberculosis) (UniProt Q6P5Z2)
[17] = target: NEK11 (human) (UniProt Q8NG66)
[18] = target: DSTYK (human) (UniProt Q6XUX3)
[19] = target: DYRK2 (human) (UniProt Q92630)
[20] = target: MATK (human) (UniProt P42679)
[21] = target: MAK (human) (UniProt P20794)
[22] = target: CSNK1A1 (human) (UniProt P48729)
[23] = target: PIP5K1C (human) (UniProt O60331)
[24] = target: NEK4 (human) (UniProt P51957)
[25] = target: CRK2 (P.falciparum) (UniProt P61075)
[26] = target: GRK7 (human) (UniProt Q8WTQ7)
[27] = target: GRK1 (human) (UniProt Q15835)
[28] = target: PRPF4B (human) (UniProt Q13523)
[29] = target: CDKL3 (human) (UniProt Q8IVW4)
[30] = target: CDK13 (human) (UniProt Q14004)
[31] = target: MAP3K1 (human) (UniProt Q13233)
[32] = target: OXSR1 (human) (UniProt O95747)
[33] = target: SIK3 (human) (UniProt Q9Y2K2)
[34] = target: CDK4 CCND3 (human) (UniProt P11802+P30281)
[35] = target: PIP4K2C (human) (UniProt Q8TBX8)
[36] = target: PIK3C2G (human) (UniProt O75747)
[37] = target: HIPK3 (human) (UniProt Q9H422)
[38] = target: MAP3K2 (human) (UniProt Q9Y2U5)

Sequence of PIK3C2G (human) (O75747 whole entry, looked up): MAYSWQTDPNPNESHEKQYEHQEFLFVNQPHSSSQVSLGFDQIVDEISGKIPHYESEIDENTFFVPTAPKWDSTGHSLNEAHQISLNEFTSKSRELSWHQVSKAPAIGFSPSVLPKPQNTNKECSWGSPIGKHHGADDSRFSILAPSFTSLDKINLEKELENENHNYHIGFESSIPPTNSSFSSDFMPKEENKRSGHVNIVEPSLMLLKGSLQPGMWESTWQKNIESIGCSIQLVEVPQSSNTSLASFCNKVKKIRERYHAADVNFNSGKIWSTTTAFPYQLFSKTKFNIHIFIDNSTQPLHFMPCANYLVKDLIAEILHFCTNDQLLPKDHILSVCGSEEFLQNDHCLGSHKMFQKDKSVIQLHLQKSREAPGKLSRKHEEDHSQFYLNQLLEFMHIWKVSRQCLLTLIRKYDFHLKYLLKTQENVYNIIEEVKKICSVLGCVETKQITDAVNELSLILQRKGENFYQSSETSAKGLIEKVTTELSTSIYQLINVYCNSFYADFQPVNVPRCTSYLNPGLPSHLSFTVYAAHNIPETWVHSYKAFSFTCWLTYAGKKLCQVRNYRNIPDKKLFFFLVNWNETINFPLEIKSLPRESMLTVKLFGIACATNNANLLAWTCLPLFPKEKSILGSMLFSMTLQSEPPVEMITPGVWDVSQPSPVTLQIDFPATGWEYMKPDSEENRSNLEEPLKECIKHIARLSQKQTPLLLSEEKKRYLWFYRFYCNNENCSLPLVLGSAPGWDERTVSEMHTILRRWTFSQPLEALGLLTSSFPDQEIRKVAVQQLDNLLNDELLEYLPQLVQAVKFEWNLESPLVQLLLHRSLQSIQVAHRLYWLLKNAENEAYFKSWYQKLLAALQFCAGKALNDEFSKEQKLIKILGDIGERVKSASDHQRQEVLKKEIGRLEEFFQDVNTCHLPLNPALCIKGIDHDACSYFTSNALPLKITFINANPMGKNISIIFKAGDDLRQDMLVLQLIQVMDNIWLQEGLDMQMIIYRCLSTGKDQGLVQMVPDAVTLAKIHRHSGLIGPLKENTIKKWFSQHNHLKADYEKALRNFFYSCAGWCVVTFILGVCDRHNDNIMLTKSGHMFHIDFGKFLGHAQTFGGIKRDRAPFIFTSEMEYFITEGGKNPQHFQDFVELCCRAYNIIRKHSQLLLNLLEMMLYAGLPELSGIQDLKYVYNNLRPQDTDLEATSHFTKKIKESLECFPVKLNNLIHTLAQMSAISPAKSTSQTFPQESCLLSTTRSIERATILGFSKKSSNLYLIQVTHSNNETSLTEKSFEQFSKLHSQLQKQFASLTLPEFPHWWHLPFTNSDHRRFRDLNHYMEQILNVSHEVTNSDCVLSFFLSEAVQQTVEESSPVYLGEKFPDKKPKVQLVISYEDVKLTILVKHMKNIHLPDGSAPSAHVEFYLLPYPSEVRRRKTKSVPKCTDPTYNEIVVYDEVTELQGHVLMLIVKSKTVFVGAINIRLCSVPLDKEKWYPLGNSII
Sequence of MAK (human) (P20794 whole entry, looked up): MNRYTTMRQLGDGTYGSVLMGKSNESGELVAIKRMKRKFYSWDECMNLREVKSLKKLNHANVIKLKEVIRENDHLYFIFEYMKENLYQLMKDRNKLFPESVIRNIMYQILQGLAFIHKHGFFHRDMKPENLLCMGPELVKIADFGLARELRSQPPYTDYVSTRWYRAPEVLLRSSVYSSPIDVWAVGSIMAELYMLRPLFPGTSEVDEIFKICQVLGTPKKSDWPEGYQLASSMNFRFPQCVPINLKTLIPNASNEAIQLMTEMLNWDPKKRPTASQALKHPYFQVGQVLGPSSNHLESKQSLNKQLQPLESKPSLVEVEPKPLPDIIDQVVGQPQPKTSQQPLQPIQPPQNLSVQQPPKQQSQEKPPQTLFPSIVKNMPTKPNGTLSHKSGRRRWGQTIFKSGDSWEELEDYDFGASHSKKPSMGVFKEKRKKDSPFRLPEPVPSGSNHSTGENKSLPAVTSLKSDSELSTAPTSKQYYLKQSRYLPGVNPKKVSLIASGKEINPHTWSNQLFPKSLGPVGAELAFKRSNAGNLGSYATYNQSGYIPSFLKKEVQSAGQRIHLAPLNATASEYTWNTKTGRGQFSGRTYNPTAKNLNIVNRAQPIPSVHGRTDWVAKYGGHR
Sequence of GRK1 (human) (Q15835 whole entry, looked up): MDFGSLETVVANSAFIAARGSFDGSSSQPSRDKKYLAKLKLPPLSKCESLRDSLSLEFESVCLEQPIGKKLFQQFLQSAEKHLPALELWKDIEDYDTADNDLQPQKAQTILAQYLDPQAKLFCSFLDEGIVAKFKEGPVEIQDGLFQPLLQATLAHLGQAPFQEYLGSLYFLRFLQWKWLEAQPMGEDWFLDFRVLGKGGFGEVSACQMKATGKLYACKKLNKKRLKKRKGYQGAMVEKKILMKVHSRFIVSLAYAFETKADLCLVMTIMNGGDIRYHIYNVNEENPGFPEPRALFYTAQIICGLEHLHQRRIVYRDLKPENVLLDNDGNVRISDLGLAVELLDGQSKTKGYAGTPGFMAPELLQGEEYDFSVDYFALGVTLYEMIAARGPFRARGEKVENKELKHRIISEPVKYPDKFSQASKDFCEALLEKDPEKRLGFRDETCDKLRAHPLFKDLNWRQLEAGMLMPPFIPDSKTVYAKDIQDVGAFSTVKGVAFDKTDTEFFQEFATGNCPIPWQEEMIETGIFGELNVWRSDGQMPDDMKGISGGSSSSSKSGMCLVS
Sequence of PRPF4B (human) (Q13523 whole entry, looked up): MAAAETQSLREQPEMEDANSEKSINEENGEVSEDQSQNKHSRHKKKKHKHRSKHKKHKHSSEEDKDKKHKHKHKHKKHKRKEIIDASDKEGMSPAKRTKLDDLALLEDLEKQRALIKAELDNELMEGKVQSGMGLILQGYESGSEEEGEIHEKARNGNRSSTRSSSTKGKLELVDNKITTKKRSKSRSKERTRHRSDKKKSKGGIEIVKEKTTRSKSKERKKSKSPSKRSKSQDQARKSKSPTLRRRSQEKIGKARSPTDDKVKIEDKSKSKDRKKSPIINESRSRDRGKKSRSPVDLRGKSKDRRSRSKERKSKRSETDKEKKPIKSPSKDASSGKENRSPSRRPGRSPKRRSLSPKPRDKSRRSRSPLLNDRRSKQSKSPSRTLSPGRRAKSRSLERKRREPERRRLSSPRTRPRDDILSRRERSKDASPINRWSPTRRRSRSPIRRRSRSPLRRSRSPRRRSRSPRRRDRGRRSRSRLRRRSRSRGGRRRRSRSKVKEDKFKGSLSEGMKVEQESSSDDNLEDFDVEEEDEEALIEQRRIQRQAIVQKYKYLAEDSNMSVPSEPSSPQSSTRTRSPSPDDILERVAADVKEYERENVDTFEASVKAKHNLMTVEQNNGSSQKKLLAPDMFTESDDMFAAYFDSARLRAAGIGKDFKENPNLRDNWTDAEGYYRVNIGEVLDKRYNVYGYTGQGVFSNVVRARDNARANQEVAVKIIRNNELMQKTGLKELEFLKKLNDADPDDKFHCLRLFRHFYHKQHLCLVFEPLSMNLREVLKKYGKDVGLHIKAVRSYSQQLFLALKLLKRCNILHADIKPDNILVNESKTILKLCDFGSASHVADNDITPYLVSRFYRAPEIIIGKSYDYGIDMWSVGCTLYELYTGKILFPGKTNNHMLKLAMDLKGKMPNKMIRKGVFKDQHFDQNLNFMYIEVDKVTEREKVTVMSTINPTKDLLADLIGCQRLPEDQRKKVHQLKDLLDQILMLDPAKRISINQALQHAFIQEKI
Sequence of CDKL3 (human) (Q8IVW4 whole entry, looked up): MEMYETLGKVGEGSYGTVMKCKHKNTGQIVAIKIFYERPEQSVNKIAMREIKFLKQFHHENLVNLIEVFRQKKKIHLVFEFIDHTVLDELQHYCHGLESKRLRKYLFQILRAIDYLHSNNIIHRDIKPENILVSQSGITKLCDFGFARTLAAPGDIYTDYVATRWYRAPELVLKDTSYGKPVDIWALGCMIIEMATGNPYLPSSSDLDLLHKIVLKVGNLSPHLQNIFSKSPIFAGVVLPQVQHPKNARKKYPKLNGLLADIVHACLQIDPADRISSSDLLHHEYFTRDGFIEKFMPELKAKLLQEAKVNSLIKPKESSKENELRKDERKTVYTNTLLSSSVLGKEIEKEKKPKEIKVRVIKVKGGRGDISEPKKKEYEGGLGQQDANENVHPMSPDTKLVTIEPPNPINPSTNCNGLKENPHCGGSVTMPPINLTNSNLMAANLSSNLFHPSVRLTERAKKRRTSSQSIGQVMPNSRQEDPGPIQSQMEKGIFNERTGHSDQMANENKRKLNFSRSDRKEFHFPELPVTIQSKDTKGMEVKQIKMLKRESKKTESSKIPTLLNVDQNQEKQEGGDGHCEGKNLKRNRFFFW
Sequence of STK38 (human) (Q15208 whole entry, looked up): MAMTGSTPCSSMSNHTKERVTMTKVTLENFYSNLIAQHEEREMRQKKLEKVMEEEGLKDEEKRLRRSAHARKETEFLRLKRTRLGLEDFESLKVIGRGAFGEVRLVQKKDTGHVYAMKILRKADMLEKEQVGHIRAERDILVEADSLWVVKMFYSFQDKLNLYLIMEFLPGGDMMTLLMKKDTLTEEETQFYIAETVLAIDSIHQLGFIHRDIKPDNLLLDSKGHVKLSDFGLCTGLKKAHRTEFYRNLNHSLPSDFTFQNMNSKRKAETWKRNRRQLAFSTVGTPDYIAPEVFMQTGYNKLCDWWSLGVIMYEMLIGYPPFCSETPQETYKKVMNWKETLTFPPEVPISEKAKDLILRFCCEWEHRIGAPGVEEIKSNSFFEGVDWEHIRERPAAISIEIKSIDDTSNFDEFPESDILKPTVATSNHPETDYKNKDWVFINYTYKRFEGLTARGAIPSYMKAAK
Sequence of CRK2 (P.falciparum) (P61075 whole entry, looked up): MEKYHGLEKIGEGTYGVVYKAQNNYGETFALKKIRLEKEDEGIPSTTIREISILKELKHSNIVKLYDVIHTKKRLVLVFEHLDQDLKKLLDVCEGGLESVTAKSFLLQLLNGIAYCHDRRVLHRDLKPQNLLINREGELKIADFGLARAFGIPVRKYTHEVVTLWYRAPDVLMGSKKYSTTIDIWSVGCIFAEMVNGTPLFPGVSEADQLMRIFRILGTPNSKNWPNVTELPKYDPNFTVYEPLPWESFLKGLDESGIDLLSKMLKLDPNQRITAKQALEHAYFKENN

SMILES	kinase still bound, per cent of control [1] [%]	kinase still bound, per cent of control [2] [%]	kinase still bound, per cent of control [3] [%]	kinase still bound, per cent of control [4] [%]	kinase still bound, per cent of control [5] [%]	kinase still bound, per cent of control [6] [%]	kinase still bound, per cent of control [7] [%]	kinase still bound, per cent of control [8] [%]	kinase still bound, per cent of control [9] [%]	kinase still bound, per cent of control [10] [%]	kinase still bound, per cent of control [12] [%]	kinase still bound, per cent of control [13] [%]	kinase still bound, per cent of control [14] [%]	kinase still bound, per cent of control [19] [%]	kinase still bound, per cent of control [20] [%]	kinase still bound, per cent of control [21] [%]	kinase still bound, per cent of control [26] [%]	kinase still bound, per cent of control [27] [%]	kinase still bound, per cent of control [28] [%]	kinase still bound, per cent of control [29] [%]	further results
COc1cc(C(=O)NC2CCN(C)CC2)ccc1Nc1ncc2c(n1)N(C1CCCC1)C(C)CC(=O)N2C (configuration not stated)	100	100	100	100	100	100	100	100	100	–	–	–	–	–	–	–	–	–	–	–	–
Cc1ccc(C(=O)Nc2cccc(C(F)(F)F)c2)cc1Nc1cncc(C(N)=O)c1	100	100	100	100	100	100	100	0.1	100	–	–	–	–	–	–	–	–	–	–	–	–
CCOc1cc2ncc(C#N)c(Nc3ccc(OCc4ccccn4)c(Cl)c3)c2cc1NC(=O)/C=C/CN(C)C	–	–	–	–	–	–	86	–	–	81	100	100	87	64	71	100	100	84	92	100	kinase still bound, per cent of control [11]: 51%; kinase still bound, per cent of control [15]: 49%; kinase still bound, per cent of control [16]: 100%; kinase still bound, per cent of control [17]: 64%; kinase still bound, per cent of control [18]: 69%; kinase still bound, per cent of control [22]: 100%; kinase still bound, per cent of control [23]: 100%; kinase still bound, per cent of control [24]: 100%; kinase still bound, per cent of control [25]: 100%; kinase still bound, per cent of control [30]: 100%; kinase still bound, per cent of control [31]: 96%; kinase still bound, per cent of control [32]: 54%; kinase still bound, per cent of control [33]: 73%; kinase still bound, per cent of control [34]: 78%; kinase still bound, per cent of control [35]: 100%; kinase still bound, per cent of control [36]: 100%
CC[C@@H]1C(=O)N(C)c2cnc(Nc3ccc(C(=O)NC4CCN(C)CC4)cc3OC)nc2N1C1CCCC1	100	–	–	–	100	–	100	100	–	–	–	–	–	–	–	–	–	–	–	–	–
Cn1c(=O)n(-c2ccc(C(C)(C)C#N)cc2)c2c3cc(-c4cnc5ccccc5c4)ccc3ncc21	100	100	100	100	100	100	2.8	100	100	100	100	100	100	100	100	100	100	100	100	100	kinase still bound, per cent of control [37]: 100%; kinase still bound, per cent of control [38]: 100%; kinase still bound, per cent of control [31]: 100%; kinase still bound, per cent of control [32]: 100%; kinase still bound, per cent of control [33]: 100%; kinase still bound, per cent of control [36]: 4.4%
OCCCNc1cc(-c2ccnc(Nc3cccc(Cl)c3)n2)ccn1	100	100	100	100	100	100	100	100	100	100	100	100	100	100	100	4.6	100	100	100	5.4	kinase still bound, per cent of control [37]: 100%; kinase still bound, per cent of control [38]: 100%; kinase still bound, per cent of control [31]: 100%; kinase still bound, per cent of control [32]: 100%; kinase still bound, per cent of control [33]: 100%; kinase still bound, per cent of control [36]: 100%
C=CC(=O)Nc1cccc(Oc2nc(Nc3ccc(N4CCN(C)CC4)cc3OC)ncc2Cl)c1	100	0.2	0.4	0.05	100	0.3	100	100	0.1	–	–	–	–	–	–	–	–	–	–	–	–
COc1cc(C(=O)NC2CCN(C)CC2)ccc1Nc1ncc2c(n1)N(C1CCCC1)CCC(=O)N2C(C)C	100	100	100	100	100	100	100	100	100	100	100	100	100	100	100	100	100	100	100	100	kinase still bound, per cent of control [37]: 100%; kinase still bound, per cent of control [38]: 100%; kinase still bound, per cent of control [31]: 100%; kinase still bound, per cent of control [32]: 100%; kinase still bound, per cent of control [33]: 100%; kinase still bound, per cent of control [36]: 100%
